pKi: −log10 of the molar value.
Tests used:
Test in all cases: In vitro MMP inhibition, Ki determination (fluorogenic substrate II)
Type in all cases: biochemical
Details in all cases: value in parentheses
Human recombinant MMP-1 = target: T1, Human recombinant MMP-1 (Homo sapiens, UniProt P03956)
T1 construct: made in house; host or cells: MMP-1-transfected HT-1080 cells (spent media)
T1 sequence (P03956 100-469): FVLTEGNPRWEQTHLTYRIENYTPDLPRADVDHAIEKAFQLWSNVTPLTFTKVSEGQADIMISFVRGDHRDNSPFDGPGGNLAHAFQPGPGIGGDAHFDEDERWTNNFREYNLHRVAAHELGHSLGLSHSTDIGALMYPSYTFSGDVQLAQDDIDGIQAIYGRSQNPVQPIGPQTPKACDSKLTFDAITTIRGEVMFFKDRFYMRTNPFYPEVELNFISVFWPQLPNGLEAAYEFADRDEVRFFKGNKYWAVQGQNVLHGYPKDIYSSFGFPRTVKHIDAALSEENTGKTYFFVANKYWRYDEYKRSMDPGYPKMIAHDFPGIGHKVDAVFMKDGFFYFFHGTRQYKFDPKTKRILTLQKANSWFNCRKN
Summary of the method: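 Activated human recombinant MMP-1 (APMA- or trypsin-activated; proenzyme from transfected HT-1080 cells) incubated 1 hr at room temperature with 4 μM MCA/Dpa fluorogenic substrate II at or below Km in Tris buffer pH 7.5 with CaCl2. Fluorescence ex 330/em 420 nm; Ki from Morrison-equation non-linear regression, uncorrected for substrate.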

Human recombinant MMP-13 = target: T2, Human recombinant MMP-13 (Homo sapiens, UniProt P45452)
T2 construct: made in house; host or cells: baculovirus / insect cells
Summary of the method: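 Baculovirus-expressed proenzyme, APMA-activated; 4 μM fluorogenic MCA/Dpa peptide substrate (II), at or below Km, in Tris buffer pH 7.5 with CaCl2, 1 hr at room temperature. Fluorescence at 330/420 nm; Ki from non-linear regression with Morrison's equation, not corrected for substrate.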

Human recombinant MMP-14 = target: T3, Human recombinant MMP-14 (Homo sapiens, UniProt P50281)
T3 construct: The catalytic domain enzyme was expressed in E. coli inclusion bodies, solubilized in urea; made in house
Summary of the method: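 Refolded E. coli-expressed MMP-14 catalytic domain, APMA- or trypsin-activated, incubated 1 h at room temperature with 4 μM fluorogenic substrate II in pH 7.5 Tris/NaCl/CaCl2 buffer; fluorescence read at 330/420 nm. Ki from Morrison-equation non-linear regression, substrate at or below Km, uncorrected for substrate.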

Structure (SMILES) | pKi (Human recombinant MMP-1) | pKi (Human recombinant MMP-13) | pKi (Human recombinant MMP-14)
O=C(NCCSc1ccc(S(=O)(=O)C2(C(=O)NO)CCN(C3CC3)CC2)cc1)c1cc2ccccc2o1 [Example 542] | < 5.00 | 9.07 | < 5.00
COCCN1CCC(C(=O)NO)(S(=O)(=O)c2ccc(OCCc3ccc(-c4ccc(C#N)cc4)cc3)cc2)CC1 [Example 543] | < 5.00 | 9.64 | 5.51
COCCN1CCC(C(=O)NO)(S(=O)(=O)c2ccc(OCCc3cccc(-c4ccc(F)cc4)c3)cc2)CC1 [Example 544] | < 5.00 | 9.05 | < 5.00
COCCN1CCC(C(=O)NO)(S(=O)(=O)c2ccc(OCCc3cccc(-c4cccc(F)c4)c3)cc2)CC1 [Example 545] | < 5.00 | 8.95 | < 5.00
COCCN1CCC(C(=O)NO)(S(=O)(=O)c2ccc(OCCc3cccc(-c4ccc(F)cc4F)c3)cc2)CC1 [Example 546] | < 5.00 | 8.97 | < 5.00
COCCN1CCC(C(=O)NO)(S(=O)(=O)c2ccc(OCCc3cccc(-c4ccc(Cl)cc4)c3)cc2)CC1 [Example 547] | < 5.00 | 8.64 | < 5.00
COCCN1CCC(C(=O)NO)(S(=O)(=O)c2ccc(OCCc3cccc(-c4ccccn4)c3)cc2)CC1 [Example 548] | < 5.00 | 9.42 | 5.13
COCCN1CCC(C(=O)NO)(S(=O)(=O)c2ccc(OCCc3cccc(-c4ccc(F)c(F)c4)c3)cc2)CC1 [Example 549] | < 5.00 | 8.73 | < 5.00
CCCc1ccc(COc2ccc(S(=O)(=O)C3(C(=O)NO)CCOCC3)cc2)cn1 [Example 550] | < 5.00 | 9.28 | 5.66
CCCCc1ccc(COc2ccc(S(=O)(=O)C3(C(=O)NO)CCOCC3)cc2)cn1 [Example 551] | < 5.00 | 9.21 | 5.69
CCc1ccc(COc2ccc(S(=O)(=O)C3(C(=O)NO)CCOCC3)cc2)cn1 [Example 552] | < 5.00 | 8.75 | 5.61
COCCN1CCC(C(=O)NO)(S(=O)(=O)c2ccc(OCCNC(=O)c3cc4ccccc4o3)cc2)CC1 [Example 553] | < 5.00 | 9.59 | 5.65
O=C(NO)C1(S(=O)(=O)c2ccc(OCCOc3cncnc3)cc2)CCOCC1 [Example 554] | < 5.00 | 7.84 | < 5.00
O=C(NO)C1(S(=O)(=O)c2ccc(OCCCOCc3ccncc3)cc2)CCOCC1 [Example 555] | < 5.00 | 9.58 | 6.16
O=C(NO)C1(S(=O)(=O)c2ccc(OCCc3ccccn3)cc2)CCOCC1 [Example 556] | 5.05 | 7.27 | 5.46
O=C(NO)C1(S(=O)(=O)c2ccc(OCCc3cccnc3)cc2)CCOCC1 [Example 557] | < 5.00 | 8.43 | 7.28
O=C(NO)C1(S(=O)(=O)c2ccc(OCCCOc3cncnc3)cc2)CCOCC1 [Example 559] | < 5.00 | 8.82 | 6.07
O=C(NO)C1(S(=O)(=O)c2ccc(OCCCOc3cccnc3)cc2)CCOCC1 [Example 560] | < 5.00 | 9.21 | 6.26
O=C(NCCOc1ccc(S(=O)(=O)C2(C(=O)NO)CCOCC2)cc1)c1c[nH]c2ccccc12 [Example 562] | 5.56 | 8.53 | 5.03
O=C(NCCSc1ccc(S(=O)(=O)C2(C(=O)NO)CCOCC2)cc1)c1nc2ccccc2s1 [Example 598] | < 5.00 | 9.57 | < 5.00
C#Cc1ccc(-c2cccc(CCCOc3ccc(S(=O)(=O)C4(C(=O)NO)CCN(CCOC)CC4)cc3)c2)cc1 [Example 646] | < 5.00 | 9.80 | 5.37

Reference: patent publication US20040024024A1, “Aromatic sulfone hydroxamates and their use as protease inhibitors” (priority 2001, published 2004)
